Measured values published in ChEMBL document CHEMBL3526023 (Drug Metab Dispos, 2011).

What was measured:
[1] = target: T1, UDP-glucuronosyltransferase 2B7 (Homo sapiens, UniProt P16662); test: Uncompetitive substrate inhibition of UGT2B7 in diabetic human kidney microsomes assessed as reduction in enzyme-mediated mycophenolic acid phenolic 7-O-glucuronide formation by HPLC and LC-MS/MS method; format: ADME
T1 sequence (P16662 whole entry): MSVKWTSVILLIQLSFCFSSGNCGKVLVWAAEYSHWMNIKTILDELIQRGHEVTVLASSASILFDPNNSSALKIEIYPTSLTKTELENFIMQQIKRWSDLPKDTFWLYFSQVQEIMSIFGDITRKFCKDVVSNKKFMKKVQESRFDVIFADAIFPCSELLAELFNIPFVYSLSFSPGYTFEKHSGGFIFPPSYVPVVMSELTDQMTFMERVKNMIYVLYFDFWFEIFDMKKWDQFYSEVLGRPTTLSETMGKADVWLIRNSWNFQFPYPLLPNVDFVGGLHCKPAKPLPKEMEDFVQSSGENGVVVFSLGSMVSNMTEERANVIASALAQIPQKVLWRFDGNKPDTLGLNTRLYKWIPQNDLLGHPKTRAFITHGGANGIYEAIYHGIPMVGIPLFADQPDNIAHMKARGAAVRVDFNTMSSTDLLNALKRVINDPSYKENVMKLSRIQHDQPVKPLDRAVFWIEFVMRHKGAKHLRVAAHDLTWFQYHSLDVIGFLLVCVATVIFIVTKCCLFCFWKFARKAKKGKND

[2] = target: T1, UDP-glucuronosyltransferase 2B7; test: Ratio of Vmax to Km in non-diabetic human kidney microsomes assessed as UGT2B7-mediated mycophenolic acid acyl glucuronide formation per pmol protein by HPLC and LC-MS/MS method; format: ADME
[3] = target: T1, UDP-glucuronosyltransferase 2B7; test: Ratio of Vmax to Km in non-diabetic human liver microsomes assessed as UGT2B7-mediated mycophenolic acid phenolic 7-O-glucuronide formation per pmol protein by HPLC and LC-MS/MS method; format: ADME
[4] = target: T1, UDP-glucuronosyltransferase 2B7; test: Ratio of Vmax to Km in diabetic human liver microsomes assessed as UGT2B7-mediated mycophenolic acid phenolic 7-O-glucuronide formation per pmol protein by HPLC and LC-MS/MS method; format: ADME
[5] = target: T1, UDP-glucuronosyltransferase 2B7; test: Drug metabolism in diabetic human kidney microsomes assessed as UGT2B7-mediated mycophenolic acid acyl glucuronide formation per pmol protein by HPLC and LC-MS/MS method; format: ADME
[6] = target: T1, UDP-glucuronosyltransferase 2B7; test: Uncompetitive substrate inhibition of UGT2B7 in non-diabetic human kidney microsomes assessed as reduction in enzyme-mediated mycophenolic acid phenolic 7-O-glucuronide formation by HPLC and LC-MS/MS method; format: ADME
[7] = target: T1, UDP-glucuronosyltransferase 2B7; test: Uncompetitive substrate inhibition of UGT2B7 in non-diabetic human kidney microsomes assessed as reduction in enzyme-mediated mycophenolic acid acyl glucuronide formation by HPLC and LC-MS/MS method; format: ADME
[8] = target: T1, UDP-glucuronosyltransferase 2B7; test: Uncompetitive substrate inhibition of UGT2B7 in diabetic human kidney microsomes assessed as reduction in enzyme-mediated mycophenolic acid acyl glucuronide formation by HPLC and LC-MS/MS method; format: ADME
[9] = target: T1, UDP-glucuronosyltransferase 2B7; test: Drug metabolism in diabetic human liver microsomes assessed as UGT2B7-mediated mycophenolic acid phenolic 7-O-glucuronide formation per pmol protein by HPLC and LC-MS/MS method; format: ADME
[10] = target: T1, UDP-glucuronosyltransferase 2B7; test: Uncompetitive substrate inhibition of UGT2B7 in non-diabetic human liver microsomes assessed as reduction in enzyme-mediated mycophenolic acid phenolic 7-O-glucuronide formation by HPLC and LC-MS/MS method; format: ADME
[11] = target: T1, UDP-glucuronosyltransferase 2B7; test: Uncompetitive substrate inhibition of UGT2B7 in diabetic human liver microsomes assessed as reduction in enzyme-mediated mycophenolic acid acyl glucuronide formation by HPLC and LC-MS/MS method; format: ADME
[12] = target: T1, UDP-glucuronosyltransferase 2B7; test: Uncompetitive substrate inhibition of UGT2B7 in diabetic human liver microsomes assessed as reduction in enzyme-mediated mycophenolic acid phenolic 7-O-glucuronide formation by HPLC and LC-MS/MS method; format: ADME
[13] = target: T1, UDP-glucuronosyltransferase 2B7; test: Drug metabolism in diabetic human kidney microsomes assessed as UGT2B7-mediated mycophenolic acid phenolic 7-O-glucuronide formation per pmol protein by HPLC and LC-MS/MS method; format: ADME
[14] = target: T1, UDP-glucuronosyltransferase 2B7; test: Drug metabolism in non-diabetic human kidney microsomes assessed as UGT2B7-mediated mycophenolic acid phenolic 7-O-glucuronide formation per pmol protein by HPLC and LC-MS/MS method; format: ADME
[15] = target: T1, UDP-glucuronosyltransferase 2B7; test: Ratio of Vmax to Km in diabetic human kidney microsomes assessed as UGT2B7-mediated mycophenolic acid acyl glucuronide formation per pmol protein by HPLC and LC-MS/MS method; format: ADME
[16] = target: T1, UDP-glucuronosyltransferase 2B7; test: Ratio of Vmax to Km in non-diabetic human kidney microsomes assessed as UGT2B7-mediated mycophenolic acid phenolic 7-O-glucuronide formation per pmol protein by HPLC and LC-MS/MS method; format: ADME
[17] = target: T1, UDP-glucuronosyltransferase 2B7; test: Uncompetitive substrate inhibition of UGT2B7 in non-diabetic human liver microsomes assessed as reduction in enzyme-mediated mycophenolic acid acyl glucuronide formation by HPLC and LC-MS/MS method; format: ADME
[18] = target: T1, UDP-glucuronosyltransferase 2B7; test: Drug metabolism in non-diabetic human liver microsomes assessed as UGT2B7-mediated mycophenolic acid phenolic 7-O-glucuronide formation per pmol protein by HPLC and LC-MS/MS method; format: ADME
[19] = target: T1, UDP-glucuronosyltransferase 2B7; test: Ratio of Vmax to Km in diabetic human liver microsomes assessed as UGT2B7-mediated mycophenolic acid acyl glucuronide formation per pmol protein by HPLC and LC-MS/MS method; format: ADME
[20] = target: T1, UDP-glucuronosyltransferase 2B7; test: Drug metabolism in diabetic human liver microsomes assessed as UGT2B7-mediated mycophenolic acid acyl glucuronide formation per pmol protein by HPLC and LC-MS/MS method; format: ADME
[21] = target: T1, UDP-glucuronosyltransferase 2B7; test: Ratio of Vmax to Km in diabetic human kidney microsomes assessed as UGT2B7-mediated mycophenolic acid phenolic 7-O-glucuronide formation per pmol protein by HPLC and LC-MS/MS method; format: ADME
[22] = target: T1, UDP-glucuronosyltransferase 2B7; test: Drug metabolism in non-diabetic human liver microsomes assessed as UGT2B7-mediated mycophenolic acid acyl glucuronide formation per pmol protein by HPLC and LC-MS/MS method; format: ADME
[23] = target: T1, UDP-glucuronosyltransferase 2B7; test: Ratio of Vmax to Km in non-diabetic human liver microsomes assessed as UGT2B7-mediated mycophenolic acid acyl glucuronide formation per pmol protein by HPLC and LC-MS/MS method; format: ADME
[24] = target: T1, UDP-glucuronosyltransferase 2B7; details: microsomes
[25] = target: T1, UDP-glucuronosyltransferase 2B7; test: Drug metabolism in non-diabetic human kidney microsomes assessed as UGT2B7-mediated zidovudine glucuronide formation per pmol protein by HPLC and LC-MS/MS method; format: ADME
[26] = target: T1, UDP-glucuronosyltransferase 2B7; details: microsomes; remark: listed apart in the source
[27] = target: T1, UDP-glucuronosyltransferase 2B7; details: microsomes; remark: listed apart in the source
[28] = target: T1, UDP-glucuronosyltransferase 2B7; test: Ratio of Vmax to Km in diabetic human liver microsomes assessed as UGT2B7-mediated zidovudine glucuronide formation per pmol protein by HPLC and LC-MS/MS method; format: ADME
[29] = target: T1, UDP-glucuronosyltransferase 2B7; details: microsomes; remark: listed apart in the source
[30] = target: T1, UDP-glucuronosyltransferase 2B7; test: Drug metabolism in diabetic human liver microsomes assessed as UGT2B7-mediated zidovudine glucuronide formation per pmol protein by HPLC and LC-MS/MS method; format: ADME
[31] = target: T1, UDP-glucuronosyltransferase 2B7; test: Drug metabolism in diabetic human kidney microsomes assessed as UGT2B7-mediated zidovudine glucuronide formation per pmol protein by HPLC and LC-MS/MS method; format: ADME
[32] = target: T1, UDP-glucuronosyltransferase 2B7; test: Drug metabolism in non-diabetic human liver microsomes assessed as UGT2B7-mediated zidovudine glucuronide formation per pmol protein by HPLC and LC-MS/MS method; format: ADME
[33] = substrate: COc1c(C)c2c(c(O)c1C/C=C(\C)CCC(=O)O)C(=O)OC2; test: Drug metabolism in diabetic human kidney microsomes assessed as UGT2B7-mediated mycophenolic acid acyl glucuronide formation by HPLC and LC-MS/MS method; format: ADME
[34] = substrate: COc1c(C)c2c(c(O)c1C/C=C(\C)CCC(=O)O)C(=O)OC2; test: Drug metabolism in non-diabetic human liver microsomes assessed as UGT2B7-mediated mycophenolic acid acyl glucuronide formation by HPLC and LC-MS/MS method; format: ADME
[35] = substrate: COc1c(C)c2c(c(O)c1C/C=C(\C)CCC(=O)O)C(=O)OC2; test: Drug metabolism in diabetic human liver microsomes assessed as UGT2B7-mediated mycophenolic acid phenolic 7-O-glucuronide formation by HPLC and LC-MS/MS method; format: ADME
[36] = substrate: COc1c(C)c2c(c(O)c1C/C=C(\C)CCC(=O)O)C(=O)OC2; test: Drug metabolism in non-diabetic human liver microsomes assessed as UGT2B7-mediated mycophenolic acid phenolic 7-O-glucuronide formation by HPLC and LC-MS/MS method; format: ADME
[37] = substrate: COc1c(C)c2c(c(O)c1C/C=C(\C)CCC(=O)O)C(=O)OC2; test: Drug metabolism in non-diabetic human kidney microsomes assessed as UGT2B7-mediated mycophenolic acid acyl glucuronide formation by HPLC and LC-MS/MS method; format: ADME
[38] = substrate: COc1c(C)c2c(c(O)c1C/C=C(\C)CCC(=O)O)C(=O)OC2; test: Drug metabolism in diabetic human liver microsomes assessed as UGT2B7-mediated mycophenolic acid acyl glucuronide formation by HPLC and LC-MS/MS method; format: ADME
[39] = substrate: COc1c(C)c2c(c(O)c1C/C=C(\C)CCC(=O)O)C(=O)OC2; test: Drug metabolism in non-diabetic human kidney microsomes assessed as UGT2B7-mediated mycophenolic acid phenolic 7-O-glucuronide formation by HPLC and LC-MS/MS method; format: ADME
[40] = substrate: COc1c(C)c2c(c(O)c1C/C=C(\C)CCC(=O)O)C(=O)OC2; test: Drug metabolism in diabetic human kidney microsomes assessed as UGT2B7-mediated mycophenolic acid phenolic 7-O-glucuronide formation by HPLC and LC-MS/MS method; format: ADME

**Q.** Which results are given for COc1c(C)c2c(c(O)c1C/C=C(\C)CCC(=O)O)C(=O)OC2 [MYCOPHENOLIC ACID]?
**A.** Ki [1]: 1500 nM; Vmax/Km [2]: 0.41 nL/min; Vmax/Km [3]: 22.9 nL/min; Vmax/Km [4]: 31.3 nL/min; Vmax [5]: 0.43 pmol/min; Ki [6]: 1500 nM; Ki [7]: 2000 nM; Ki [8]: 2000 nM; Vmax [9]: 15.7 pmol/min; Ki [10]: 1500 nM; Ki [11]: 2000 nM; Ki [12]: 1500 nM; Vmax [13]: 38.8 pmol/min; Vmax [14]: 26.4 pmol/min; Vmax/Km [15]: 0.12 nL/min; Vmax/Km [16]: 27.6 nL/min; Ki [17]: 2000 nM; Vmax [18]: 10.6 pmol/min; Vmax/Km [19]: 1.51 nL/min; Vmax [20]: 0.76 pmol/min; Vmax/Km [21]: 34.1 nL/min; Vmax [22]: 2.43 pmol/min; Vmax/Km [23]: 4.08 nL/min

**Q.** What does the source list for Cc1cn([C@H]2C[C@H](N=[N+]=[N-])[C@@H](CO)O2)c(=O)[nH]c1=O [ZIDOVUDINE]?
**A.** Km [24]: 330 µM; Vmax [25]: 20.5 pmol/min; Km [26]: 519 µM; Km [27]: 307 µM; Vmax/Km [28]: 0.87 nL/min; Km [29]: 519 µM; Vmax [30]: 274 pmol/min; Vmax [31]: 6.52 pmol/min; Vmax [32]: 1214 pmol/min

B1: UDP-glucuronosyltransferase 2B7 (Homo sapiens) (protein)
chain: MSVKWTSVILLIQLSFCFSSGNCGKVLVWAAEYSHWMNIKTILDELIQRGHEVTVLASSASILFDPNNSSALKIEIYPTSLTKTELENFIMQQIKRWSDLPKDTFWLYFSQVQEIMSIFGDITRKFCKDVVSNKKFMKKVQESRFDVIFADAIFPCSELLAELFNIPFVYSLSFSPGYTFEKHSGGFIFPPSYVPVVMSELTDQMTFMERVKNMIYVLYFDFWFEIFDMKKWDQFYSEVLGRPTTLSETMGKADVWLIRNSWNFQFPYPLLPNVDFVGGLHCKPAKPLPKEMEDFVQSSGENGVVVFSLGSMVSNMTEERANVIASALAQIPQKVLWRFDGNKPDTLGLNTRLYKWIPQNDLLGHPKTRAFITHGGANGIYEAIYHGIPMVGIPLFADQPDNIAHMKARGAAVRVDFNTMSSTDLLNALKRVINDPSYKENVMKLSRIQHDQPVKPLDRAVFWIEFVMRHKGAKHLRVAAHDLTWFQYHSLDVIGFLLVCVATVIFIVTKCCLFCFWKFARKAKKGKND
**Q.** What does the source list for B1?
**A.** Km [33]: 3430 µM; Km [34]: 601 µM; Km [35]: 482 µM; Km [36]: 454 µM; Km [37]: 3010 µM; Km [38]: 502 µM; Km [39]: 1010 µM; Km [40]: 1160 µM
